Experimental findings from US20080004302A1, “Novel Compounds” (ASTRAZENECA AB, priority 2006, published 2008) are described below.

Molecules are shown by their SMILES. Where a name gives a salt, the structure may show the parent alone.

For one assay, the target named is T1, human IGF1R (Homo sapiens, UniProt P08069).
T1 construct: expressed in transfected cells; host or cells: R+ cells (R- mouse fibroblasts transfected with human IGF1R)
In words: Inhibition of insulin-like growth factor-1 receptor phosphorylation in R+ cells. The class given is cell-based. The conditions noted are these: 30 nM IGF1, read-out: IGF cell class. As for the experimental part: This immunofluorescence end point cell assay measures the ability of a test compound to reduce the measured levels of IGF1R phosphorylation after IGF1 stimulation in R^+ cells. […] were derived by transfection of R^− mouse fibroblast cells with human IGF1R.
(+5% CO2) incubator for 30 minutes.
Following the compound treatment, the R^+ cells were stimulated with a final concentration of 30 nM IGF1 (Gropep 1M001) for 20 minutes at 37° C. […] Plates were incubated for 1 hour at room temperature. […] Additionally, in-house antibodies raised against phospho […] were also used at a suitable titre determined for each batch.
The plates were incubated at room temperature for one hour. […] After addition of 100 μl/well PBS the plates were sealed with a black seal.
The Green Fluorescent phospho IGF1R -associated signal in each well was measured using an Acumen Explorer HTS Reader (TTP Labtech Ltd., Cambridge). […] The instrument is a laser-scanning fluorescence microplate cytometer, which samples the well at regular intervals and uses threshold algorithms to identify all fluorescent intensities above the solution background without the need to generate and analyse an image. These fluorescent objects can be quantified and provide a measure of the phospho IGF1R levels in cells. Fluorescence dose response data obtained with each compound was exported into a suitable software package (such as Origin) to perform curve fitting analysis. Phospho-IGF1R levels in response to compound treatment versus stimulated and unstimulated controls were expressed as an IC50 value.

For a further assay, the target named is FGFR1 kinase (Homo sapiens, UniProt P11362). Description: Kinase assay (using Caliper technology). The class given is biochemical. The settings on record: FGFR1 kinase, Caliper; upper bound of bin; read-out: IC50. As for the experimental part: To determine inhibition of FGFR activity, kinase assays were conducted using Caliper technology.
Kinase activity assays were performed in Greiner 384-well low volume plates, with a total reaction volume of 12ul per well. […] The substrate for each assay was a custom peptide with fluorescent tag (13 amino acids in length) the sequence of which was specific for FGFR1 kinase.
Compounds were serially diluted in 5% (v/v) DMSO, before being added to assay plates.
Assay plates were incubated at room temperature for 1.5 h, before the reaction was stopped with the addition of buffer [comprising: 100 mM HEPES—pH7.5, 0.033% Brij-35, 0.22% Caliper Coating Reagent #3, 88mM EDTA, 5% DMSO]. Stopped assay plates were then read using the Caliper LabChip® LC3000 (which uses microfludics to measure a shift in mobility between fluorescent labelled peptide and the FGFR1 kinase—phosphorylated form of this peptide).

In the next assay the target is T2, FGFR1 IIIc (Homo sapiens, UniProt P11362).
T2 construct: host or cells: Cos-1
Description: Cell based inhibition of transiently expressed FGFR1 IIIc phosphorylation via use of ECHO technology (Cos-1 cells). The settings on record: Cos-1 cells, phospho-FGFR1, ECHO dosing; upper bound of bin; read-out: IC50. As for the experimental part:
This assay is designed to detect inhibitors of transiently expressed FGFR1 phosphorylation by antibody staining of fixed cells detected using ArrayScan technology.
To undertake the assay, Cos-1 cells were harvested at 90-95% confluence for cell transfection. For each 96-well plate, 24μl Lipofectamine 2000 was added to 809 ul OptiMEM and incubated at room temperature for 5 minutes. […] Equal volumes of DNA and Lipofectamine 2000 were combined (DNA: Lipid=1:1.2 ratio) and incubated at room temperature for 20 minutes.
The harvested Cos-1 cells are counted using a coulter counter and diluted further with 1% FCS/DMEM to 2.5×10^5 cells/ml. For each 96-well, 8.33 ml cells were required. […] 70 μl of media was aspirated from the assay plate using the Quadra before the plate was transferred onto the ECHO 550. […] Compound transfer to the assay plate on the ECHO 550 was at concentration ranges 1)10 μM, 2) 3 μM, 3) 1 μM, 4) 0.3 μM, 5) 0.1 μM, 6) […].
The plates were gently tapped to mix compound in with the cell media and left to incubate at 37° C. with 5% CO2 for 1 hour.
Media was removed from the wells using vacuum aspiration; cells were fixed by adding 50 μl of 100% methanol to each well and incubated at room temperature for 20 minutes.
The plates were read on an Arrayscan (Cellomics).

T1 sequence (P08069 31-1367): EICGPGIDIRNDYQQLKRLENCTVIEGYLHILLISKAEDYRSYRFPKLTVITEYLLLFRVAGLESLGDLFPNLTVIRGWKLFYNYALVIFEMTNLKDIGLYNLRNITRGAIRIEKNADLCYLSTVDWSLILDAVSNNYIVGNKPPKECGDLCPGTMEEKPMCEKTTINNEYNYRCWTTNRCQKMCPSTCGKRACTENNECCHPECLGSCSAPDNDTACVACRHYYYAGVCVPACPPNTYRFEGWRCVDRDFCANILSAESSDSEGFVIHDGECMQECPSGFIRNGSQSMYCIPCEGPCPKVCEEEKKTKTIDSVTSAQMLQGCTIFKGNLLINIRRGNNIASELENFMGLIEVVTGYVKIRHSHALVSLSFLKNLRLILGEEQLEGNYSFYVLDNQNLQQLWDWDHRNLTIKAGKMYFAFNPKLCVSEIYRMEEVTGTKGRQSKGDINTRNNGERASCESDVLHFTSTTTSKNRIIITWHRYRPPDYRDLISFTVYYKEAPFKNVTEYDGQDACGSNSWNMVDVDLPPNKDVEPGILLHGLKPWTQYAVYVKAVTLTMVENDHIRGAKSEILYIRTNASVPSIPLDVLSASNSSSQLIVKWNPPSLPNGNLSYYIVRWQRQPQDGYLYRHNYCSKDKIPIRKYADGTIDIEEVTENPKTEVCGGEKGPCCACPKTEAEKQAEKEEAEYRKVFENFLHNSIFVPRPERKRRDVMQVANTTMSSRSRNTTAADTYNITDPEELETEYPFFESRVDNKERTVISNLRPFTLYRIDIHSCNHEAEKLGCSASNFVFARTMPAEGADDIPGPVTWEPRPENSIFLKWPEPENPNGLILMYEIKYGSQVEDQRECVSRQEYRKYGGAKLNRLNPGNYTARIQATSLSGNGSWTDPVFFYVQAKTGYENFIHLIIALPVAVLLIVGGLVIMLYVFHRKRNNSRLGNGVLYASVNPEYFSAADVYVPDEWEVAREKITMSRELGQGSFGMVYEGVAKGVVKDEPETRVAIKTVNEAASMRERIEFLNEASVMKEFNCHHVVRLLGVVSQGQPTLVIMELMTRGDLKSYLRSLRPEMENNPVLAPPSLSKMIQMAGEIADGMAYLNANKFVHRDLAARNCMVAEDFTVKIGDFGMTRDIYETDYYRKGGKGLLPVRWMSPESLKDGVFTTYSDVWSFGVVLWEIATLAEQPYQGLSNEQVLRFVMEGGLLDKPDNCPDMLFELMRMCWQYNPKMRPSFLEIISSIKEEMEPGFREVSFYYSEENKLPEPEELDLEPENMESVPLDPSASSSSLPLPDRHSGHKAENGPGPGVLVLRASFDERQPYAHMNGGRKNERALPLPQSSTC
Chain of FGFR1 kinase (P11362 22-822): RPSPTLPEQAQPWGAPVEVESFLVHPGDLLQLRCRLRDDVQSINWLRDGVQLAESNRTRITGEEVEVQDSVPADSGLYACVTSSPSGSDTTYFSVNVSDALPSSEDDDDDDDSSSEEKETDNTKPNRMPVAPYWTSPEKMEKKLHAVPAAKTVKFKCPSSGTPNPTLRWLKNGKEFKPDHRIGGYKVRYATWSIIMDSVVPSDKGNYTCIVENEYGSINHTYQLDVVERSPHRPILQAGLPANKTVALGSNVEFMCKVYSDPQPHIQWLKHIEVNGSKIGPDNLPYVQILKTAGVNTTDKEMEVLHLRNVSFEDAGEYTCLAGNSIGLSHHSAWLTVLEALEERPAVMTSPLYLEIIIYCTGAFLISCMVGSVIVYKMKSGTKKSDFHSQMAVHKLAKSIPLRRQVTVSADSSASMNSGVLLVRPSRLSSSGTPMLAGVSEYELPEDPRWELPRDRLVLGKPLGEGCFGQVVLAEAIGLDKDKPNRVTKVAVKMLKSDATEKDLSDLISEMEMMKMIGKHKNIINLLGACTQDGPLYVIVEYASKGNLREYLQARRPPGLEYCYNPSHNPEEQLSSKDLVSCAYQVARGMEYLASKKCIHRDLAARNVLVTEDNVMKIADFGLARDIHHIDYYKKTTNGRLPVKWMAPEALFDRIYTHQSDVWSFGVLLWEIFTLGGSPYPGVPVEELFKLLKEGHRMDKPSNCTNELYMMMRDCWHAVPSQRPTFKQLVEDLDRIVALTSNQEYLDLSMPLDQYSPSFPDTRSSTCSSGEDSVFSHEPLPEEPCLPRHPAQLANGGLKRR
T2 sequence (P11362 22-822): as above

As to `COCCCc1cc(Nc2ccnc(NCc3cc(C4CC4)no3)n2)n[nH]1` [Example 18, N-[(3-cyclopropyl-1,2-oxazol-5-yl)methyl]-N′-[5-(3-methoxypropyl)-2H-pyrazol-3-yl]pyrimidine-2,4-diamine], at human IGF1R, the IC50 was in the range of 1000 to 10000 nM. With `COCC(C)Oc1cc(Nc2ccnc(NCc3cc(C)no3)n2)n[nH]1` (stereo not drawn) [Example 75, N′-[5-(1-methoxypropan-2-yloxy)-1H-pyrazol-3-yl]-N-[(3-methyl-1,2-oxazol-5-yl)methyl]pyrimidine-2,4-diamine], the IC50 on FGFR1 kinase was less than 10000 nM; at human IGF1R it was more than 10000 nM. The matching figures for `CCOc1ccc(COc2cc(Nc3ccnc(NCc4cc(C)no4)n3)n[nH]2)cc1OC` [Example 99, N′-[5-[(4-ethoxy-3-methoxy-phenyl)methoxy]-1H-pyrazol-3-yl]-N-[(3-methyl1,2-oxazol-5-yl)methyl]pyrimidine-2,4-diamine]: less than 10000 nM and more than 10000 nM. As for `Cc1cc(CNc2nccc(Nc3cc(CCc4cccc(OC(C)C)c4)[nH]n3)n2)on1` [Example 122, N-[(3-methyl-1,2-oxazol-5-yl)methyl]-N′-[5-[2-(3-propan-2-yloxyphenyl)ethyl]-1H-pyrazol-3-yl]pyrimidine-2,4-diamine], the IC50 at FGFR1 kinase and on FGFR1 IIIc was less than 1000 nM each time. As for `NC(=O)c1cc(CNc2nccc(Nc3cc(CCc4cccc(OCC5CC5)c4)[nH]n3)n2)on1` [Example 123, 5-[[[4-[[5-[2-[3-(cyclopropylmethoxy)phenyl]ethyl]-1H-pyrazol-3-yl]amino]pyrimidin-2-yl]amino]methyl]-1,2-oxazole-3-carboxamide], the IC50 at FGFR1 kinase was less than 1000 nM; on FGFR1 IIIc it was less than 10000 nM. In the case of `COc1cc(CCc2cc(Nc3ccnc(NCc4cc(C)no4)n3)n[nH]2)cc(OC)n1` [Example 124, N′-[5-[2-(2,6-dimethoxypyridin-4-yl)ethyl]-1H-pyrazol-3-yl]-N-[(3-methyl-1,2-oxazol-5-yl)methyl]pyrimidine-2,4-diamine], the IC50 on FGFR1 kinase and at FGFR1 IIIc was less than 200 nM throughout. With `Cc1cc(CNc2nccc(Nc3cc(CCc4cccc(N)c4)[nH]n3)n2)on1` [Example 125, N′-[5-[2-(3-aminophenyl)ethyl]-1H-pyrazol-3-yl]-N-[(3-methyl-1,2-oxazol-5-yl)methyl]pyrimidine-2,4-diamine], the IC50 at FGFR1 kinase was less than 200 nM; on FGFR1 IIIc, less than 1000 nM.

Consider `COc1cc(Cl)cc(CCc2cc(Nc3ccnc(NCc4cc(C(N)=O)no4)n3)[nH]n2)c1` [Example 126, 5-[[[4-[[5-[2-(3-chloro-5-methoxy-phenyl)ethyl]-2H-pyrazol-3-yl]amino]pyrimidin-2-yl]amino]methyl]-1,2-oxazole-3-carboxamide], for which the IC50 at FGFR1 kinase and at FGFR1 IIIc was less than 200 nM in each case. As for `COc1cncc(CCc2cc(Nc3ccnc(NCc4cc(CN(C)C)no4)n3)n[nH]2)c1` [Example 127, N-[[3-(dimethylaminomethyl)-1,2-oxazol-5-yl]methyl]-N′-[5-[2-(5-methoxypyridin-3-yl)ethyl]-1H-pyrazol-3-yl]pyrimidine-2,4-diamine], the IC50 was less than 1000 nM on FGFR1 kinase and less than 30000 nM at FGFR1 IIIc. On the same counts, the results for `COc1ccc(CCc2cc(Nc3ccnc(NCc4cc(C)no4)n3)n[nH]2)s1` [Example 129, N′-[5-[2-(5-methoxythiophen-2-yl)ethyl]-1H-pyrazol-3-yl]-N-[(3-methyl-1,2-oxazol-5-yl)methyl]pyrimidine-2,4-diamine] are less than 10000 nM and less than 1000 nM. Turning to `COc1ncc(CCc2cc(Nc3ccnc(NCc4cc(C)no4)n3)n[nH]2)s1` [Example 130, N′-[5-[2-(2-methoxy-1,3-thiazol-5-yl)ethyl]-1H-pyrazol-3-yl]-N-[(3-methyl-1,2-oxazol-5-yl)methyl]pyrimidine-2,4-diamine], the IC50 is less than 1000 nM on FGFR1 kinase and less than 10000 nM at FGFR1 IIIc. The matching figures for `COc1cc(C)cc(COc2cc(Nc3ccnc(NCc4cc(C)no4)n3)n[nH]2)c1` [Example 131, N′-[5-[(3-methoxy-5-methyl-phenyl)methoxy]-1H-pyrazol-3-yl]-N-[(3-methyl-1,2-oxazol-5-yl)methyl]pyrimidine-2,4-diamine]: less than 200 nM and less than 200 nM. On the same counts, the results for `CNC(=O)c1cc(CCc2cc(Nc3ccnc(NCc4cc(C)no4)n3)n[nH]2)cc(OC)c1` [Example 132, 3-Methoxy-N-methyl-5-[2-[5-[[2-[(3-methyl-1,2-oxazol-5-yl)methylamino]pyrimidin-4-yl]amino]-1H-pyrazol-3-yl]ethyl]benzamide] are less than 200 nM and less than 1000 nM. The matching figures for `Cc1cc(CNc2nccc(Nc3cc(CCc4cccc(Oc5ncccn5)c4)[nH]n3)n2)on1` [Example 133, N-[(3-methyl-1,2-oxazol-5-yl)methyl]-N′-[5-[2-(3-pyrimidin-2-yloxyphenyl)ethyl]-1H-pyrazol-3-yl]pyrimidine-2,4-diamine hydrochloride]: less than 200 nM and less than 10000 nM. In the case of `Cc1cc(CNc2nccc(Nc3cc(CCc4cccc(=O)[nH]4)[nH]n3)n2)on1` [Example 134, 6-[2-[5-[[2-[(3-methyl-1,2-oxazol-5-yl)methylamino]pyrimidin-4-yl]amino]-2H-pyrazol-3-yl]ethyl]-1H-pyridin-2-one dihydrochloride], the IC50 at FGFR1 kinase was less than 10000 nM; on FGFR1 IIIc it was less than 30000 nM.

With `COc1cc(COc2cc(Nc3ccnc(NCc4cc(C)no4)n3)n[nH]2)c(F)cn1` [Example 135, N′-[5-[(5-fluoro-2-methoxy-pyridin-4-yl)methoxy]-1H-pyrazol-3-yl]-N-[(3-methyl-1,2-oxazol-5-yl)methyl]pyrimidine-2,4-diamine], the results for the IC50 on FGFR1 kinase and at FGFR1 IIIc were less than 200 nM and less than 1000 nM, respectively.

Consider `COc1cc(CCc2cc(Nc3ccnc(NCc4cc(CN(C)C)no4)n3)n[nH]2)c(F)cn1` [Example 136, N-[[3-(dimethylaminomethyl)-1,2-oxazol-5-yl]methyl]-N′-[5-[2-(5-fluoro-2-methoxy-pyridin-4-yl)ethyl]-1H-pyrazol-3-yl]pyrimidine-2,4-diamine], for which the IC50 at FGFR1 kinase was less than 1000 nM; at FGFR1 IIIc, less than 10000 nM. On to `COc1ccnc(COc2cc(Nc3ccnc(NCc4cc(C)no4)n3)n[nH]2)c1` [Example 137, N′-[5-[(4-methoxypyridin-2-yl)methoxy]-1H-pyrazol-3-yl]-N-[(3-methyl-1,2-oxazol-5-yl)methyl]pyrimidine-2,4-diamine], for which the IC50 on FGFR1 kinase was less than 1000 nM; on FGFR1 IIIc, less than 30000 nM. The matching figures for `COc1cncc(CCc2cc(Nc3ccnc(NCc4cc(C)no4)n3)n[nH]2)c1` [Example 138, N′-[5-[2-(5-methoxypyridin-3-yl)ethyl]-1H-pyrazol-3-yl]-N-[(3-methyl-1,2-oxazol-5-yl)methyl]pyrimidine-2,4-diamine]: less than 1000 nM and less than 10000 nM. For `COc1cc(CCc2cc(Nc3ccnc(NCc4cc(C)no4)n3)n[nH]2)cc(NC(C)=O)c1` [Example 139, N-[3-methoxy-5-[2-[5-[[2-[(3-methyl-1,2-oxazol-5-yl)methylamino]pyrimidin-4-yl]amino]-2H-pyrazol-3-yl]ethyl]phenyl]acetamide], the IC50 at FGFR1 IIIc is less than 30000 nM. On the same count and under the same terms, the same measure for `CC(C)Oc1cccc(CCc2cc(Nc3ccnc(NCc4cc(C(N)=O)no4)n3)n[nH]2)c1` [Example 140, 5-[[[4-[[5-[2-(3-propan-2-yloxyphenyl)ethyl]-1H-pyrazol-3-yl]amino]pyrimidin-2-yl]amino]methyl]-1,2-oxazole-3-carboxamide]: less than 10000 nM.
